The record followed here is PubChem BioAssay AID328 (DTP/NCI, 2004).

The test system of the test is BDF1 mice, P388 leukemia ip, median survival T/C. Put plainly: NCI In Vivo Anticancer Drug Screen. Data for tumor model P388 Leukemia (intraperitoneal) in B6D2F1 (BDF1) mice. The settings on record: endpoint: median survival time, higher = longer survival. Put shortly:
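Steps: implant the tumour, treat one group with compound and another with vehicle, record survival, then divide treated by control.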

[1] abbreviates: dose: 50.0 mg/kg/injection, schedule: Q04DX003 (ip), vehicle: saline.
Setting [2] is: dose: 75.0 mg/kg/injection, schedule: Q04DX003 (ip), vehicle: saline.
Where [3] appears, read: dose: 100.0 mg/kg/injection, schedule: Q04DX003 (ip), vehicle: saline.
Setting [4] is: dose: 100.0 mg/kg/injection, schedule: Q01DX009 (ip), vehicle: saline with Tween-80.
[5] abbreviates: dose: 200.0 mg/kg/injection, schedule: Q01DX009 (ip), vehicle: saline with Tween-80.
Where [6] appears, read: dose: 400.0 mg/kg/injection, schedule: Q01DX009 (ip), vehicle: saline with Tween-80.
Setting [7] is: dose: 50.0 mg/kg/injection, schedule: Q01DX009 (ip), vehicle: saline with Tween-80.
Setting [8] is: dose: 100.0 mg/kg/injection, schedule: Q01DX009 (ip), vehicle: saline.
[9] abbreviates: dose: 200.0 mg/kg/injection, schedule: Q01DX009 (ip), vehicle: saline.

“And” between values parts separate entries of the source, which are not always exact repeats. Equal values may be shown once. Toxic doses and inconclusive results are not listed.

With `COc1ccc2nc(C)c(COC(C)=O)cc2c1`, the T/C was 93 % of control (dose: 25.0 mg/kg/injection, schedule: Q01DX009 (ip), vehicle: saline + alcohol); 111 % of control (dose: 50.0 mg/kg/injection, schedule: Q01DX009 (ip), vehicle: saline + alcohol); 109 % of control (dose: 50.0 mg/kg/injection, schedule: Q04DX003 (ip), vehicle: saline + alcohol); 101 % of control (dose: 100.0 mg/kg/injection, schedule: Q01DX009 (ip), vehicle: saline + alcohol); 109 % of control (dose: 100.0 mg/kg/injection, schedule: Q04DX003 (ip), vehicle: saline + alcohol); 90 % of control (dose: 200.0 mg/kg/injection, schedule: Q01DX009 (ip), vehicle: saline + alcohol). The T/C reads like this: (dose: 200.0 mg/kg/injection, schedule: Q04DX003 (ip), vehicle: saline + alcohol) 97 % of control; (dose: 400.0 mg/kg/injection, schedule: Q01DX009 (ip), vehicle: saline + alcohol) 109 % of control; (dose: 400.0 mg/kg/injection, schedule: Q04DX003 (ip), vehicle: saline + alcohol) 110 % of control.
On to `CC1(C)N=C(N)N=C(N)N1c1cccc(C#N)c1`, for which the T/C is 111 % of control and 118 % of control (dose: 22.0 mg/kg/injection, schedule: Q04DX003 (ip), vehicle: saline); 122 % of control and 123 % of control (dose: 33.0 mg/kg/injection, schedule: Q04DX003 (ip), vehicle: saline); 118 % of control and 123 % of control under setting [1]; 95 % of control under setting [2]; 116 % of control under setting [3].
On to `O=CC(Cl)Cl`, for which the T/C is 100 % of control (dose: 25.0 mg/kg/injection, schedule: Q04DX003 (ip), vehicle: saline); 95 % of control under setting [1]; 100 % of control under setting [3].
Turning to `CCC1CC2CC(c3cc4c(cc3OC)N(C)C3C(O)(C(=O)OC)C(OC(C)=O)C5(CC)C=CCN6CCC43C65)c3[nH]c4ccccc4c3CCN(C1)C2` (configuration not stated), the T/C is 181 % of control (dose: 0.03 mg/kg/injection, schedule: Q01DX009 (ip), vehicle: water); 100 % of control (dose: 0.06 mg/kg/injection, schedule: Q01DX009 (ip), vehicle: water); 100 % of control (dose: 0.12 mg/kg/injection, schedule: Q01DX009 (ip), vehicle: water); 90 % of control and 95 % of control (dose: 0.25 mg/kg/injection, schedule: Q01DX009 (ip), vehicle: water); 90 % of control (dose: 0.25 mg/kg/injection, schedule: Q04DX003 (ip), vehicle: water); 100 % of control and 104 % of control (dose: 0.5 mg/kg/injection, schedule: Q01DX009 (ip), vehicle: water). Also, the T/C (dose: 0.5 mg/kg/injection, schedule: Q04DX003 (ip), vehicle: water) was 95 % of control; the T/C (dose: 1.0 mg/kg/injection, schedule: Q01DX009 (ip), vehicle: water) is 109 % of control; the T/C (dose: 1.0 mg/kg/injection, schedule: Q04DX003 (ip), vehicle: water) was 95 % of control; the T/C (dose: 2.0 mg/kg/injection, schedule: Q01DX009 (ip), vehicle: water) was 104 % of control; the T/C (dose: 4.0 mg/kg/injection, schedule: Q04DX003 (ip), vehicle: water) was 95 % of control; the T/C (dose: 6.0 mg/kg/injection, schedule: Q04DX003 (ip), vehicle: water) is 90 % of control. The T/C was 104 % of control (dose: 5.0 micrograms/kg/injection, schedule: Q01DX009 (ip), vehicle: water); 102 % of control (dose: 10.0 micrograms/kg/injection, schedule: Q01DX009 (ip), vehicle: water); 90 % of control (dose: 20.0 micrograms/kg/injection, schedule: Q01DX009 (ip), vehicle: water); 100 % of control (dose: 40.0 micrograms/kg/injection, schedule: Q01DX009 (ip), vehicle: water); 92 % of control (dose: 80.0 micrograms/kg/injection, schedule: Q01DX009 (ip), vehicle: water).
For the molecule `Oc1c(CN2CCOCC2)cc(CN2CCOCC2)cc1CN1CCOCC1`, the T/C by setting is: under setting [4], 91 % of control; under setting [5], 86 % of control; under setting [6], 100 % of control.
Regarding `Cc1cc(C)c2nccc(/C=C/c3ccc(N(C)C)cc3)c2c1`, the T/C is 93 % of control under setting [7] and 103 % of control under setting [4].
Regarding `Brc1ccc(C[N+]23CN4CN(CN(C4)C2)C3)cc1`, the T/C is 115 % of control under setting [8]; 118 % of control under setting [3]; 107 % of control and 108 % of control (dose: 132.0 mg/kg/injection, schedule: Q01DX009 (ip), vehicle: saline with Tween-80); 90 % of control under setting [9]; 122 % of control (dose: 200.0 mg/kg/injection, schedule: Q04DX003 (ip), vehicle: saline).
With `O=C1OCC2SC(c3ccccc3)NC12` (configuration not stated), the T/C reads like this: (dose: 100.0 mg/kg/injection, schedule: Q01DX001 (ip), vehicle: saline sonified) 95 % of control; (dose: 200.0 mg/kg/injection, schedule: Q01DX001 (ip), vehicle: saline sonified) 113 % of control; (dose: 400.0 mg/kg/injection, schedule: Q01DX001 (ip), vehicle: saline sonified) 95 % of control.
On to `COCCCNC1=C(C#N)C(=O)NC2(CCCC2)S1`, for which the T/C runs as follows: under setting [7], 90 % of control; under setting [4], 90 % of control; under setting [5], 104 % of control.
As for `COc1cccc(N2C(N)=NC(N)=NC2(C)C)c1`, the T/C runs as follows: (dose: 9.37 mg/kg/injection, schedule: Q01DX009 (ip), vehicle: Klucel (hydroxypropylcellulose) (HPC)) 108 % of control; (dose: 18.75 mg/kg/injection, schedule: Q01DX009 (ip), vehicle: Klucel (hydroxypropylcellulose) (HPC)) 93 % of control.
As for `Nc1cc(S(N)(=O)=O)ccc1SSc1ccc(S(N)(=O)=O)cc1N`, the T/C under setting [8] was 122 % of control and the T/C under setting [9] was 154 % of control.
`C[C@]12C=CC(=O)C=C1CC[C@@H]1[C@@H]2[C@@H](O)C[C@@]2(C)[C@H]1CC[C@]2(O)C(=O)COC(=O)CCC(=O)O`: the T/C is 113 % of control (dose: 66.0 mg/kg/injection, schedule: Q04DX003 (ip), vehicle: saline with Tween-80); 113 % of control (dose: 100.0 mg/kg/injection, schedule: Q04DX003 (ip), vehicle: saline with Tween-80); 108 % of control (dose: 150.0 mg/kg/injection, schedule: Q04DX003 (ip), vehicle: saline with Tween-80); 118 % of control under setting [5]; 118 % of control under setting [6]; 104 % of control (dose: 400.0 mg/kg/injection, schedule: Q04DX003 (ip), vehicle: saline with Tween-80).
Turning to `CS(=O)(=NC(=S)Nc1ccccc1)c1ccccc1` (configuration not stated), the T/C is, setting by setting: (dose: 75.0 mg/kg/injection, schedule: Q01DX001 (ip), vehicle: other) 115 % of control; (dose: 150.0 mg/kg/injection, schedule: Q01DX001 (ip), vehicle: other) 95 % of control; (dose: 300.0 mg/kg/injection, schedule: Q01DX001 (ip), vehicle: other) 100 % of control.
In the case of `CN(C)CCCN1CCC2(CC[C@H]3CCCC[C@@H]3C2)CC1`, the T/C reads like this: (dose: 18.75 mg/kg/injection, schedule: Q04DX003 (ip), vehicle: saline) 100 % of control; (dose: 37.5 mg/kg/injection, schedule: Q04DX003 (ip), vehicle: saline) 109 % of control; under setting [2], 113 % of control.
Take `OC(CNc1ccc(Cl)c(Cl)c1)COc1ccc(Cl)cc1Cl` (configuration not stated): the T/C is, setting by setting: under setting [7], 101 % of control; under setting [4], 101 % of control; under setting [5], 104 % of control.
Regarding `CCN(C(=O)Nc1cccc2ccccc12)c1ccccc1`, the T/C reads like this: (dose: 50.0 mg/kg/injection, schedule: Q01DX001 (ip), vehicle: other) 95 % of control; (dose: 100.0 mg/kg/injection, schedule: Q01DX001 (ip), vehicle: other) 95 % of control; (dose: 200.0 mg/kg/injection, schedule: Q01DX001 (ip), vehicle: other) 100 % of control.
For the molecule `CC(=O)OCc1c(COC(C)=O)c(-c2ccccc2)n2c1CCC2`, for the setting “dose: 6.25 mg/kg/injection, schedule: Q01DX009 (ip), vehicle: Klucel (hydroxypropylcellulose) (HPC)”, the T/C is 107 % of control.
For the molecule `COC(=O)c1cc(-c2ccccc2)[nH]c1-c1ccccc1`, the T/C (dose: 50.0 mg/kg/injection, schedule: Q01DX009 (ip), vehicle: saline) was 92 % of control.
Consider `CC(C)c1cccc(OS(=O)(=O)c2ccccc2[N+](=O)[O-])c1`, for which the T/C runs as follows: (dose: 100.0 mg/kg/injection, schedule: Q04DX003 (ip), vehicle: saline sonified) 100 % of control; (dose: 200.0 mg/kg/injection, schedule: Q04DX003 (ip), vehicle: saline sonified) 100 % of control; (dose: 400.0 mg/kg/injection, schedule: Q04DX003 (ip), vehicle: saline sonified) 100 % of control.
